Laboratory results reported in BindingDB's records for patent US20230286970 (Italfarmaco, 2023).

Legend:
Histone deacetylase 1 = Histone deacetylase 1 (Homo sapiens, UniProt Q13547); assay: Enzymatic Activity Assay
Method: (§1) After a period of preincubation (incubation times and temperatures vary for different isoforms and are shown in table 1) 25 μL of solution containing the substrate were added. […] Enzymatic activity on recombinant human HDAC6 and HDAC1 was evaluated (Table 2) for each synthesized compound.

Histone deacetylase 6 = biological target: T1, Histone deacetylase 6 (Homo sapiens, UniProt Q9UBN7); assay: Enzymatic Activity Assay
T1 sequence (Q9UBN7 whole entry): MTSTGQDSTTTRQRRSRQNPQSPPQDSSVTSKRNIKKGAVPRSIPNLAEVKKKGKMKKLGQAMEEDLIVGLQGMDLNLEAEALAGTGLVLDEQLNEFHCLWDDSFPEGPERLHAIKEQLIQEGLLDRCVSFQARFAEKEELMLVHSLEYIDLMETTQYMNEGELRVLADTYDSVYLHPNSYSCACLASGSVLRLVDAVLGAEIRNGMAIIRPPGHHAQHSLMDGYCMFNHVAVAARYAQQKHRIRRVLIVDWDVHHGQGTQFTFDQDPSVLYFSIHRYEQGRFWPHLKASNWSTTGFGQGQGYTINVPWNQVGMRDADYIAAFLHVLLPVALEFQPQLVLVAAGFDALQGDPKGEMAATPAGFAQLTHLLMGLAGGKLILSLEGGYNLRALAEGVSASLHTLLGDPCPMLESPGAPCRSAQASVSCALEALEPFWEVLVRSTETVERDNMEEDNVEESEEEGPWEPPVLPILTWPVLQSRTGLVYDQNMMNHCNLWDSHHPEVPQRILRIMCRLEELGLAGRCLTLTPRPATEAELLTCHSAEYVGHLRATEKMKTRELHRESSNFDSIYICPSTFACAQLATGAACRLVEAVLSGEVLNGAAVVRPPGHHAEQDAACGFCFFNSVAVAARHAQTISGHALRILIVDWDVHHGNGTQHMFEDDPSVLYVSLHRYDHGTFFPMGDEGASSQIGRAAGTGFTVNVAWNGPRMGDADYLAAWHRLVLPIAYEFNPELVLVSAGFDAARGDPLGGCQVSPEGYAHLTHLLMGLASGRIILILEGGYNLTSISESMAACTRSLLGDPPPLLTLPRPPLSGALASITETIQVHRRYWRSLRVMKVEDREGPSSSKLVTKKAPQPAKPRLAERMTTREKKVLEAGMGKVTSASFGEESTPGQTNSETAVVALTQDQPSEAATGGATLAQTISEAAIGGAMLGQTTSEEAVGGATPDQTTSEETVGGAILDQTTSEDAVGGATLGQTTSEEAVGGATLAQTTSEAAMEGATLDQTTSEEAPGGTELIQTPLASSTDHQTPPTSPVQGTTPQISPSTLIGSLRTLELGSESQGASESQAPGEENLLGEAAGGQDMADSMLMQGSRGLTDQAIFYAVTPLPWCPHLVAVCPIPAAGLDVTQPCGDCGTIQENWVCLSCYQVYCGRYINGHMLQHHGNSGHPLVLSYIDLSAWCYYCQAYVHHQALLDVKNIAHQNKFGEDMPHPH
Method: as §1

Histone deacetylase 1, sequence (Q13547 whole entry, canonical isoform): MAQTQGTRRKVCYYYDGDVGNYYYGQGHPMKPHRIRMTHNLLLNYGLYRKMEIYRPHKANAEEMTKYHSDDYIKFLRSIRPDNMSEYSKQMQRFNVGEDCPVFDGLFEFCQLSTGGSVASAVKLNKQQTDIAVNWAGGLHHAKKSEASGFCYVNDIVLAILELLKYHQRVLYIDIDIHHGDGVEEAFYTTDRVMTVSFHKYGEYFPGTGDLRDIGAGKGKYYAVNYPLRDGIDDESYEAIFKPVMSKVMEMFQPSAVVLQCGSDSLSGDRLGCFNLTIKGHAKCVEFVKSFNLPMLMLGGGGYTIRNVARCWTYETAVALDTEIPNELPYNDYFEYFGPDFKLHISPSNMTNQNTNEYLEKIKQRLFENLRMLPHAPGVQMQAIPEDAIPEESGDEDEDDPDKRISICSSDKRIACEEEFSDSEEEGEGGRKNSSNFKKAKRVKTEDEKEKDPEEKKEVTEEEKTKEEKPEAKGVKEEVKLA

SMILES | IC50 (Histone deacetylase 1) | IC50 (Histone deacetylase 6)
NC(=O)c1cccc(-c2nnn(Cc3ccc(-c4nnc(C(F)F)o4)cn3)n2)c1 [US20230286970, Compound 29] | > 200000 nM | 10 nM
NCc1ccc(-c2nnn(Cc3c(F)cc(-c4nnc(C(F)F)o4)cc3F)n2)cc1 [US20230286970, Compound 33] | > 200000 nM | 14 nM
Nc1ncc(-c2cccc(-c3nnn(Cc4ccc(-c5nnc(C(F)F)o5)cn4)n3)c2)s1 [US20230286970, Compound 38] | > 200000 nM | 18 nM
NCc1ccc(-c2cn(Cc3c(F)cc(-c4nnc(C(F)F)o4)cc3F)nn2)cc1 [US20230286970, Compound 44] | 163000 nM | 20 nM
Nc1ccc(-c2cn(Cc3ccc(-c4nnc(C(F)F)o4)cc3)nn2)cn1 [US20230286970, Compound 52] | – | 23 nM
O=C1NCc2ccc(-c3nnn(Cc4ccc(-c5nnc(C(F)F)o5)cc4)n3)cc21 [US20230286970, Compound 55] | > 200000 nM | 24 nM
Oc1ccc(-c2nnn(Cc3ccc(-c4nnc(C(F)F)o4)cc3)n2)cc1 [US20230286970, Compound 56] | > 200000 nM | 25 nM
O=C1NCc2ccc(-c3nnn(Cc4c(F)cc(-c5nnc(C(F)F)o5)cc4F)n3)cc21 [US20230286970, Compound 57] | > 200000 nM | 25 nM
C[C@H](c1ccc(-c2nnc(C(F)F)o2)cc1)n1cc(-c2ccc(N)nc2)nn1 [US20230286970, Compound 106] | – | 41 nM
O=C1Nc2ccc(-c3nnn(Cc4ccc(-c5nnc(C(F)F)o5)cc4)n3)cc2NC12CCCCC2 [US20230286970, Compound 157] | > 200000 nM | 70 nM
FC(F)c1nnc(-c2cnc(Cn3nnc(-c4cccs4)n3)nc2)o1 [US20230286970, Compound 187] | > 200000 nM | 41 nM
CN(C)C(=Nc1ccc(-c2cn(Cc3ccc(-c4nnc(C(F)F)o4)cc3)nn2)cc1)N(C)C [US20230286970, Compound 217] | > 200000 nM | 154 nM
C[C@@H](c1ccc(-c2nnc(C(F)F)o2)cc1)n1cc(-c2ccc(N)nc2)nn1 [US20230286970, Compound 255] | – | 377 nM
O=C(O)c1cccc(-c2nnn(Cc3ccc(-c4nnc(C(F)F)o4)cc3)n2)c1 [US20230286970, Compound 260] | > 200000 nM | 480 nM
O=C(O)c1cccc(-c2cn(Cc3ccc(-c4nnc(C(F)F)o4)cc3)nn2)c1 [US20230286970, Compound 275] | > 200000 nM | 373 nM
CCN(Cc1cn(Cc2c(F)cc(-c3nnc(C(F)F)o3)cc2F)nn1)C(=O)Nc1cccnc1OC [US20230286970, Compound 283] | > 200000 nM | 225 nM
COc1ncc(NCc2ccc(-n3cc(Cc4ccc(-c5nnc(C(F)F)o5)cc4)nn3)cc2)cc1C(N)=O [US20230286970, Compound 286] | > 200000 nM | 99 nM
Nc1ncnc2sc(-c3cn(Cc4ccc(-c5nnc(C(F)F)o5)c(F)c4F)nn3)cc12 [US20230286970, Compound 384] | – | 63 nM
CN(C)c1ccc2cc(-c3cn(Cc4c(F)cc(-c5nnc(C(F)F)o5)cc4F)nn3)ccc2n1 [US20230286970, Compound 399] | – | 247 nM
Nc1ccc(-n2cc(Cc3ccc(-c4nnc(C(F)F)o4)cc3)nn2)cn1 [US20230286970, Compound 413] | – | 515 nM
Nc1ncnc2sc(-c3cn(Cc4cc(F)c(-c5nnc(C(F)F)o5)cc4F)nn3)cc12 [US20230286970, Compound 415] | – | 49 nM
